Measured values as given in PubChem BioAssay AID1963437 (Molecular Pharmacology Branch, DTP, NCI, 2024).
pIC50: −log10 of the molar value. Blank lines part the entries; values can stand above or below the compound they belong to.

System: OVCAR-8 complex spheroid, growth inhibition
Experiment: Anticancer human tumor OVCAR-8 cell line growth inhibition [Asc];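 note: spheroids exposed to agents for 7 days before readout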;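 for viability, T/C: percent viability relative to DMSO vehicle wells taken as 100%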
Details: for pIC50: curve of first compound; for viability, T/C: stronger effect = lower value
Method in brief: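 Tumor cells were grown as multicellular spheroids with stromal HUVEC and mesenchymal stem cells and treated singly or in combination. Concentrations fell in half-log steps from the clinical Cmax, or from 10 microM where none was known.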

[1] = second compound 0.0316 µM, first compound 0.00949 µM
[2] = second compound 0.0316 µM, first compound 0.03 µM
[3] = second compound 0.0316 µM, first compound 0.0949 µM
[4] = second compound 0.0316 µM, first compound 0.3 µM
[5] = second compound 0.0316 µM, first compound 0.949 µM
[6] = second compound 0.0316 µM, first compound 3 µM
[7] = second compound 0.1 µM, first compound 0.00949 µM
[8] = second compound 0.1 µM, first compound 0.03 µM
[9] = second compound 0.1 µM, first compound 0.0949 µM
[10] = second compound 0.1 µM, first compound 0.3 µM
[11] = second compound 0.1 µM, first compound 0.949 µM
[12] = second compound 0.1 µM, first compound 3 µM
[13] = second compound 0.316 µM, first compound 0.00949 µM
[14] = second compound 0.316 µM, first compound 0.03 µM
[15] = second compound 0.316 µM, first compound 0.0949 µM
[16] = second compound 0.316 µM, first compound 0.3 µM
[17] = second compound 0.316 µM, first compound 0.949 µM
[18] = second compound 0.316 µM, first compound 3 µM
[19] = second compound 1 µM, first compound 0.00949 µM
[20] = second compound 1 µM, first compound 0.03 µM
[21] = second compound 1 µM, first compound 0.0949 µM
[22] = second compound 1 µM, first compound 0.3 µM
[23] = second compound 1 µM, first compound 0.949 µM
[24] = second compound 1 µM, first compound 3 µM

pIC50 (second compound 0.00316 µM): < 5.52 | pIC50 (second compound 0.01 µM): < 5.52 | pIC50 (second compound 0.0316 µM): < 5.52 | pIC50 (second compound 0.1 µM): < 5.52 | pIC50 (second compound 0.316 µM): < 5.52 | pIC50 (second compound 1 µM): < 5.52
Structure (SMILES): CCN1C(C(=O)NC23CCC(C(=O)O)(CC2)CC3)C(c2cccc(Cl)c2F)C2(C(=O)Nc3cc(Cl)ccc32)C12CCCCC2 (stereo unspecified) + CNC(C)C(=O)NC1CN(S(=O)(=O)c2cccc(S(=O)(=O)N3CCC4CCC(C(=O)NC(c5ccccc5)c5ccccc5)N4C(=O)C(NC(=O)C(C)NC)C3)c2)CCC2CCC(C(=O)NC(c3ccccc3)c3ccccc3)N2C1=O
viability, T/C (second compound 0.00316 µM, first compound 0.00949 µM): 119% | viability, T/C (second compound 0.00316 µM, first compound 0.03 µM): 96.5% | viability, T/C (second compound 0.00316 µM, first compound 0.0949 µM): 104% | viability, T/C (second compound 0.00316 µM, first compound 0.3 µM): 97.9% | viability, T/C (second compound 0.00316 µM, first compound 0.949 µM): 106% | viability, T/C (second compound 0.00316 µM, first compound 3 µM): 110% | viability, T/C (second compound 0.01 µM, first compound 0.00949 µM): 98.4% | viability, T/C (second compound 0.01 µM, first compound 0.03 µM): 91.1% | viability, T/C (second compound 0.01 µM, first compound 0.0949 µM): 95% | viability, T/C (second compound 0.01 µM, first compound 0.3 µM): 84.8% | viability, T/C (second compound 0.01 µM, first compound 0.949 µM): 105% | viability, T/C (second compound 0.01 µM, first compound 3 µM): 107% | viability, T/C [1]: 85.4% | viability, T/C [2]: 86.9% | viability, T/C [3]: 92.7% | viability, T/C [4]: 102% | viability, T/C [5]: 102% | viability, T/C [6]: 118% | viability, T/C [7]: 85.3% | viability, T/C [8]: 78.3% | viability, T/C [9]: 99.8% | viability, T/C [10]: 88.1% | viability, T/C [11]: 118% | viability, T/C [12]: 103% | viability, T/C [13]: 98.8% | viability, T/C [14]: 86.5% | viability, T/C [15]: 90.2% | viability, T/C [16]: 78.3% | viability, T/C [17]: 90.4% | viability, T/C [18]: 97.5% | viability, T/C [19]: 80.5% | viability, T/C [20]: 79.2% | viability, T/C [21]: 95.7% | viability, T/C [22]: 84.2% | viability, T/C [23]: 93.3% | viability, T/C [24]: 112%

pIC50 (second compound 0.0316 µM): < 5.52 | pIC50 (second compound 0.1 µM): < 5.52 | pIC50 (second compound 0.316 µM): < 5.52 | pIC50 (second compound 1 µM): < 5.52 | pIC50 (second compound 3.16 µM): < 5.52 | pIC50 (second compound 10 µM): < 5.52
Structure (SMILES): CCN1C(C(=O)NC23CCC(C(=O)O)(CC2)CC3)C(c2cccc(Cl)c2F)C2(C(=O)Nc3cc(Cl)ccc32)C12CCCCC2 (stereo unspecified) + Cc1c(S(C)(=O)=O)c(-c2cc(F)cc(N3CCN(c4ccc(NS(=O)(=O)c5ccc(NC(CCN6CCC(C(=O)OCCCP(=O)(O)O)CC6)CSc6ccccc6)c(S(=O)(=O)C(F)(F)F)c5)cc4)CC3)c2)c(-c2ccc(Cl)cc2)n1C(C)C
viability, T/C [1]: 92.4% | viability, T/C [2]: 99.1% | viability, T/C [3]: 99.5% | viability, T/C [4]: 90% | viability, T/C [5]: 107% | viability, T/C [6]: 109% | viability, T/C [7]: 90.1% | viability, T/C [8]: 95.8% | viability, T/C [9]: 94.8% | viability, T/C [10]: 89.8% | viability, T/C [11]: 101% | viability, T/C [12]: 105% | viability, T/C [13]: 108% | viability, T/C [14]: 99.9% | viability, T/C [15]: 94.8% | viability, T/C [16]: 105% | viability, T/C [17]: 102% | viability, T/C [18]: 125% | viability, T/C [19]: 109% | viability, T/C [20]: 93.1% | viability, T/C [21]: 93.5% | viability, T/C [22]: 106% | viability, T/C [23]: 112% | viability, T/C [24]: 144% | viability, T/C (second compound 3.16 µM, first compound 0.00949 µM): 118% | viability, T/C (second compound 3.16 µM, first compound 0.03 µM): 95.2% | viability, T/C (second compound 3.16 µM, first compound 0.0949 µM): 88.3% | viability, T/C (second compound 3.16 µM, first compound 0.3 µM): 101% | viability, T/C (second compound 3.16 µM, first compound 0.949 µM): 98.8% | viability, T/C (second compound 3.16 µM, first compound 3 µM): 144% | viability, T/C (second compound 10 µM, first compound 0.00949 µM): 113% | viability, T/C (second compound 10 µM, first compound 0.03 µM): 104% | viability, T/C (second compound 10 µM, first compound 0.0949 µM): 106% | viability, T/C (second compound 10 µM, first compound 0.3 µM): 86.7% | viability, T/C (second compound 10 µM, first compound 0.949 µM): 132% | viability, T/C (second compound 10 µM, first compound 3 µM): 146%

pIC50 (second compound 0.0316 µM): < 7.00 | pIC50 (second compound 0.1 µM): < 7.00 | pIC50 (second compound 0.316 µM): < 7.00 | pIC50 (second compound 1 µM): < 7.00 | pIC50 (second compound 3.16 µM): < 7.00 | pIC50 (second compound 10 µM): < 7.00
Structure (SMILES): Cn1ncnc1[C@H]1c2n[nH]c(=O)c3cc(F)cc(c23)N[C@@H]1c1ccc(F)cc1 + Cc1c(S(C)(=O)=O)c(-c2cc(F)cc(N3CCN(c4ccc(NS(=O)(=O)c5ccc(NC(CCN6CCC(C(=O)OCCCP(=O)(O)O)CC6)CSc6ccccc6)c(S(=O)(=O)C(F)(F)F)c5)cc4)CC3)c2)c(-c2ccc(Cl)cc2)n1C(C)C
viability, T/C (second compound 0.0316 µM, first compound 0.000316 µM): 96.3% | viability, T/C (second compound 0.0316 µM, first compound 0.001 µM): 94.8% | viability, T/C (second compound 0.0316 µM, first compound 0.00316 µM): 90% | viability, T/C (second compound 0.0316 µM, first compound 0.01 µM): 103% | viability, T/C (second compound 0.0316 µM, first compound 0.0316 µM): 127% | viability, T/C (second compound 0.0316 µM, first compound 0.1 µM): 149% | viability, T/C (second compound 0.1 µM, first compound 0.000316 µM): 103% | viability, T/C (second compound 0.1 µM, first compound 0.001 µM): 106% | viability, T/C (second compound 0.1 µM, first compound 0.00316 µM): 115% | viability, T/C (second compound 0.1 µM, first compound 0.01 µM): 123% | viability, T/C (second compound 0.1 µM, first compound 0.0316 µM): 123% | viability, T/C (second compound 0.1 µM, first compound 0.1 µM): 155% | viability, T/C (second compound 0.316 µM, first compound 0.000316 µM): 122% | viability, T/C (second compound 0.316 µM, first compound 0.001 µM): 101% | viability, T/C (second compound 0.316 µM, first compound 0.00316 µM): 111% | viability, T/C (second compound 0.316 µM, first compound 0.01 µM): 101% | viability, T/C (second compound 0.316 µM, first compound 0.0316 µM): 141% | viability, T/C (second compound 0.316 µM, first compound 0.1 µM): 158% | viability, T/C (second compound 1 µM, first compound 0.000316 µM): 106% | viability, T/C (second compound 1 µM, first compound 0.001 µM): 109% | viability, T/C (second compound 1 µM, first compound 0.00316 µM): 106% | viability, T/C (second compound 1 µM, first compound 0.01 µM): 110% | viability, T/C (second compound 1 µM, first compound 0.0316 µM): 125% | viability, T/C (second compound 1 µM, first compound 0.1 µM): 160% | viability, T/C (second compound 3.16 µM, first compound 0.000316 µM): 130% | viability, T/C (second compound 3.16 µM, first compound 0.001 µM): 120% | viability, T/C (second compound 3.16 µM, first compound 0.00316 µM): 92.8% | viability, T/C (second compound 3.16 µM, first compound 0.01 µM): 115% | viability, T/C (second compound 3.16 µM, first compound 0.0316 µM): 138% | viability, T/C (second compound 3.16 µM, first compound 0.1 µM): 161% | viability, T/C (second compound 10 µM, first compound 0.000316 µM): 124% | viability, T/C (second compound 10 µM, first compound 0.001 µM): 93.1% | viability, T/C (second compound 10 µM, first compound 0.00316 µM): 88.3% | viability, T/C (second compound 10 µM, first compound 0.01 µM): 127% | viability, T/C (second compound 10 µM, first compound 0.0316 µM): 169% | viability, T/C (second compound 10 µM, first compound 0.1 µM): 164%
